# Test results reported in patent publication US20230002367A1, “BIFUNCTIONAL COMPOUNDS” (Hoffmann-La Roche Inc., priority 2019, published 2023).
# Biological target: T1, SMARCA2 (Homo sapiens, UniProt P51531)
# T1 construct: endogenous in cells
# Assay: SMARCA2 HiBiT degradation assay (cellular)
# Format: cell-based
# Settings: for Emax: A549, Emax = amount of residual protein remaining in the cell following compound treatment; for DC50: SMARCA2 HiBiT cells, luminescence readout, 11-point titration from 10 μM, 6 hours or 16 hours, read-out: HiBit A549 SMARCA2 IP
# T1 sequence (P51531 whole entry): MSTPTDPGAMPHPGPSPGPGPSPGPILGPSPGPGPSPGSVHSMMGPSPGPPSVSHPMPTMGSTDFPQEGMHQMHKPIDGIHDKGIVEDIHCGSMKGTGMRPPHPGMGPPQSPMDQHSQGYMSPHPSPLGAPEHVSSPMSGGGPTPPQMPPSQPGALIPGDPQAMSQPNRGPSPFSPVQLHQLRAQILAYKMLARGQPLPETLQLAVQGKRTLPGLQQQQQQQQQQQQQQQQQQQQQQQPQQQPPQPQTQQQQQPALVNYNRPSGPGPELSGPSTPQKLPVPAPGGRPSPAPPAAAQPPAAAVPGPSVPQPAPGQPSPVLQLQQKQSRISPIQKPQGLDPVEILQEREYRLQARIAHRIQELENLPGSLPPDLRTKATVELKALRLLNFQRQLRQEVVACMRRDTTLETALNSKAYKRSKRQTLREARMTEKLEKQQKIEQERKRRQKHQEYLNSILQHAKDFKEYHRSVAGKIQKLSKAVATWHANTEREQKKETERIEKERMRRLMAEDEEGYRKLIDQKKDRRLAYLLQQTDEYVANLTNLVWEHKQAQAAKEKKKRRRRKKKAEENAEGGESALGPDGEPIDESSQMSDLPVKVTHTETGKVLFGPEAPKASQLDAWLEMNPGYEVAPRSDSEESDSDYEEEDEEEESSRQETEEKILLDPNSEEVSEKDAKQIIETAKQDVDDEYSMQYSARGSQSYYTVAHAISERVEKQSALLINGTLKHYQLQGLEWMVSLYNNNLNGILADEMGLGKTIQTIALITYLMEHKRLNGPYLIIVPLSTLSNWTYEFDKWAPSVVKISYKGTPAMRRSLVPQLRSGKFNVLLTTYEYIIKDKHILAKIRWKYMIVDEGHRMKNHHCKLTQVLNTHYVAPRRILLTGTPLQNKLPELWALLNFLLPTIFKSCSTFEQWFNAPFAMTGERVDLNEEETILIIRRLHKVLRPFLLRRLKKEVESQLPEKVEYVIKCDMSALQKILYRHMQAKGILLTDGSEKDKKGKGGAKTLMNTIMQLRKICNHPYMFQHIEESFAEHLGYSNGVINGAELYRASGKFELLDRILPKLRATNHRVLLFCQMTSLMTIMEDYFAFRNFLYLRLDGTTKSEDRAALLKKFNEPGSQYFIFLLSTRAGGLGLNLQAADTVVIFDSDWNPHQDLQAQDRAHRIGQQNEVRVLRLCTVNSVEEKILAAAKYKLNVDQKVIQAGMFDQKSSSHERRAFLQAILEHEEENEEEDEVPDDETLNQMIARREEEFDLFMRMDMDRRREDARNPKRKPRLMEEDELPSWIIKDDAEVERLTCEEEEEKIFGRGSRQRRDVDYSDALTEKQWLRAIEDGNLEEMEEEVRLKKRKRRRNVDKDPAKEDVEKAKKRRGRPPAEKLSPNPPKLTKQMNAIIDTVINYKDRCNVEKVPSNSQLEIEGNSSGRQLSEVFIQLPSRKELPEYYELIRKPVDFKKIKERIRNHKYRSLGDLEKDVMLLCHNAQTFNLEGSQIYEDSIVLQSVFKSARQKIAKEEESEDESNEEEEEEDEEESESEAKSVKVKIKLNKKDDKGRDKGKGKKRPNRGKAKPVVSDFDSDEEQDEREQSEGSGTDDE
Emax [%],DC50 [nM],HiBit A549 SMARCA2 Emax (%) (Emax = amount of residual protein remaining in the cell following compound treatment),SMILES
70,589,–,"Cc1ncsc1-c1ccc([C@H](C)NC(=O)[C@@H]2C[C@@H](O)CN2C(=O)[C@@H](NC(=O)CCOCCC(=O)N2CCN(c3ccc(CN4CCCC(Oc5cc(-c6ccccc6O)nnc5N)C4)cc3)CC2)C(C)(C)C)cc1 (mixture of isomers) [Example 38, rac-(2S,4R)-4-hydroxy-1-[rac-(2S)-2-[3-[3-[4-[4-[[3-[3-amino-6-(2-hydroxyphenyl)pyridazin-4-yl]oxy-1-piperidyl]methyl]phenyl]piperazin-1-yl]-3-oxo-propoxy]propanoylamino]-3,3-dimethyl-butanoyl]-N-[rac-(1S)-1-[4-(4-methylthiazol-5-yl)phenyl]ethyl]pyrrolidine-2-carboxamide]"
48,426,–,"Cc1ncsc1-c1ccc([C@H](C)NC(=O)[C@@H]2C[C@@H](O)CN2C(=O)[C@@H](NC(=O)CCC(=O)N2CCN(c3ccc(CN4CCCC(Oc5cc(-c6ccccc6O)nnc5N)C4)cc3)CC2)C(C)(C)C)cc1 (mixture of isomers) [Example 39, rac-(2S,4R)-4-hydroxy-1-[rac-(2S)-2-[[4-[4-[4-[[3-[3-amino-6-(2-hydroxyphenyl)pyridazin-4-yl]oxy-1-piperidyl]methyl]phenyl]piperazin-1-yl]-4-oxo-butanoyl]amino]-3,3-dimethyl-butanoyl]-N-[rac-(1S)-1-[4-(4-methylthiazol-5-yl)phenyl]ethyl]pyrrolidine-2-carboxamide]"
46,349,–,"Cc1ncsc1-c1ccc([C@H](C)NC(=O)[C@@H]2C[C@@H](O)CN2C(=O)[C@@H](NC(=O)CCCCCC(=O)N2CCN(c3ccc(CN4CCCC(Oc5cc(-c6ccccc6O)nnc5N)C4)cc3)CC2)C(C)(C)C)cc1 (mixture of isomers) [Example 40, rac-(2S,4R)-4-hydroxy-1-[rac-(2S)-2-[[7-[4-[4-[[3-[3-amino-6-(2-hydroxyphenyl)pyridazin-4-yl]oxy-1-piperidyl]methyl]phenyl]piperazin-1-yl]-7-oxo-heptanoyl]amino]-3,3-dimethyl-butanoyl]-N-[rac-(1S)-1-[4-(4-methylthiazol-5-yl)phenyl]ethyl]pyrrolidine-2-carboxamide]"
63,204,–,"Cc1ncsc1-c1ccc([C@H](C)NC(=O)[C@@H]2C[C@@H](O)CN2C(=O)[C@@H](NC(=O)CCCCCCCCC(=O)N2CCN(c3ccc(CN4CCCC(Oc5cc(-c6ccccc6O)nnc5N)C4)cc3)CC2)C(C)(C)C)cc1 (mixture of isomers) [Example 41, rac-(2S,4R)-4-hydroxy-1-[rac-(2S)-2-[[10-[4-[4-[[3-[3-amino-6-(2-hydroxyphenyl)pyridazin-4-yl]oxy-1-piperidyl]methyl]phenyl]piperazin-1-yl]-10-oxo-decanoyl]amino]-3,3-dimethyl-butanoyl]-N-[rac-(1S)-1-[4-(4-methylthiazol-5-yl)phenyl]ethyl]pyrrolidine-2-carboxamide]"
51,2610,–,"Cc1ncsc1-c1ccc([C@H](C)NC(=O)[C@@H]2C[C@@H](O)CN2C(=O)[C@@H](NC(=O)CCOCCOCCOCCC(=O)N2CCN(c3ccc(N4CCCC(Oc5cc(-c6ccccc6O)nnc5N)C4)cc3)CC2)C(C)(C)C)cc1 (mixture of isomers) [Example 46, rac-(2S,4R)-4-hydroxy-1-[rac-(2S)-2-[3-[2-[2-[3-[4-[4-[3-[3-amino-6-(2-hydroxyphenyl)pyridazin-4-yl]oxy-1-piperidyl]phenyl]piperazin-1-yl]-3-oxo-propoxy]ethoxy]ethoxy]propanoylamino]-3,3-dimethyl-butanoyl]-N-[rac-(1S)-1-[4-(4-methylthiazol-5-yl)phenyl]ethyl]pyrrolidine-2-carboxamide]"
55,733,–,"Cc1ncsc1-c1ccc([C@H](C)NC(=O)[C@@H]2C[C@@H](O)CN2C(=O)[C@@H](NC(=O)CCC(=O)N2CCN(c3ccc(N4CCCC(Oc5cc(-c6ccccc6O)nnc5N)C4)cc3)CC2)C(C)(C)C)cc1 (mixture of isomers) [Example 47, rac-(2S,4R)-4-hydroxy-1-[rac-(2S)-2-[[4-[4-[4-[3-[3-amino-6-(2-hydroxyphenyl)pyridazin-4-yl]oxy-1-piperidyl]phenyl]piperazin-1-yl]-4-oxo-butanoyl]amino]-3,3-dimethyl-butanoyl]-N-[rac-(1S)-1-[4-(4-methylthiazol-5-yl)phenyl]ethyl]pyrrolidine-2-carboxamide]"
22,135,–,"Cc1ncsc1-c1ccc([C@H](C)NC(=O)[C@@H]2C[C@@H](O)CN2C(=O)[C@@H](NC(=O)CCCCCCCCCCC(=O)N2CCN(c3ccc(N4CCCC(Oc5cc(-c6ccccc6O)nnc5N)C4)cc3)CC2)C(C)(C)C)cc1 (mixture of isomers) [Example 48, rac-(2S,4R)-4-hydroxy-1-[rac-(2S)-2-[[12-[4-[4-[3-[3-amino-6-(2-hydroxyphenyl)pyridazin-4-yl]oxy-1-piperidyl]phenyl]piperazin-1-yl]-12-oxo-dodecanoyl]amino]-3,3-dimethyl-butanoyl]-N-[rac-(1S)-1-[4-(4-methylthiazol-5-yl)phenyl]ethyl]pyrrolidine-2-carboxamide]"
60,1660,–,"Cc1ncsc1-c1ccc([C@H](C)NC(=O)[C@@H]2C[C@@H](O)CN2C(=O)[C@@H](NC(=O)CCOCCC(=O)N(C)CC(COc2cc(-c3ccccc3O)nnc2N)c2ccccc2)C(C)(C)C)cc1 (mixture of isomers) [Example 49, rac-(2S,4R)-4-hydroxy-1-[rac-(2S)-2-[3-[3-[[3-[3-amino-6-(2-hydroxyphenyl)pyridazin-4-yl]oxy-2-phenyl-propyl]-methyl-amino]-3-oxo-propoxy]propanoylamino]-3,3-dimethyl-butanoyl]-N-[rac-(1S)-1-[4-(4-methylthiazol-5-yl)phenyl]ethyl]pyrrolidine-2-carboxamide]"
48,1650,–,"Cc1ncsc1-c1ccc(CNC(=O)[C@@H]2C[C@@H](O)CN2C(=O)[C@@H](NC(=O)CCCCCCCCC(=O)NCC(COc2cc(-c3ccccc3O)nnc2N)c2ccccc2)C(C)(C)C)cc1 (mixture of isomers) [Example 51, N-[3-[3-amino-6-(2-hydroxyphenyl)pyridazin-4-yl]oxy-2-phenyl-propyl]-N′-[rac-(1S)-2,2-dimethyl-1-[rac-(2S,4R)-4-hydroxy-2-[[4-(4-methylthiazol-5-yl)phenyl]methylcarbamoyl]pyrrolidine-1-carbonyl]propyl]decanediamide]"
54,2610,–,"Cc1ncsc1-c1ccc(CNC(=O)[C@@H]2C[C@@H](O)CN2C(=O)[C@@H](NC(=O)CCCCCC(=O)NC(COc2cc(-c3ccccc3O)nnc2N)c2ccccc2)C(C)(C)C)cc1 (mixture of isomers) [Example 62, N-[2-[3-amino-6-(2-hydroxyphenyl)pyridazin-4-yl]oxy-1-phenyl-ethyl]-N′-[rac-(1S)-2,2-dimethyl-1-[rac-(2S,4R)-4-hydroxy-2-[[4-(4-methylthiazol-5-yl)phenyl]methylcarbamoyl]pyrrolidine-1-carbonyl]propyl]heptanediamide]"
48,798,–,"Cc1ncsc1-c1ccc(CNC(=O)[C@@H]2C[C@@H](O)CN2C(=O)[C@@H](NC(=O)CCCCCCCCC(=O)NC(COc2cc(-c3ccccc3O)nnc2N)c2ccccc2)C(C)(C)C)cc1 (mixture of isomers) [Example 63, N-[2-[3-amino-6-(2-hydroxyphenyl)pyridazin-4-yl]oxy-1-phenyl-ethyl]-N′-[rac-(1S)-2,2-dimethyl-1-[rac-(2S,4R)-4-hydroxy-2-[[4-(4-methylthiazol-5-yl)phenyl]methylcarbamoyl]pyrrolidine-1-carbonyl]propyl]decanediamide]"
24,1030,–,"Cc1ncsc1-c1ccc(CNC(=O)[C@@H]2C[C@@H](O)CN2C(=O)[C@@H](NC(=O)CCCCCCCCC(=O)N2CC(Oc3cc(-c4ccccc4O)nnc3N)CC(c3ccccc3)C2)C(C)(C)C)cc1 (mixture of isomers) [Example 65, rac-(2S,4R)-4-hydroxy-N-[[4-(4-methylthiazol-5-yl)phenyl]methyl]-1-[rac-(2S)-2-[[10-[3-[3-amino-6-(2-hydroxyphenyl)pyridazin-4-yl]oxy-5-phenyl-1-piperidyl]-10-oxo-decanoyl]amino]-3,3-dimethyl-butanoyl]pyrrolidine-2-carboxamide]"
49,2020,–,"Cc1ncsc1-c1ccc(CNC(=O)[C@@H]2C[C@@H](O)CN2C(=O)[C@@H](NC(=O)CCCCCC(=O)N2CC(Oc3cc(-c4ccccc4O)nnc3N)CC(c3ccccc3)C2)C(C)(C)C)cc1 (mixture of isomers) [Example 66, Trans rac-(2S,4R)-4-hydroxy-N-[[4-(4-methylthiazol-5-yl)phenyl]methyl]-1-[rac-(2S)-2-[[7-[3-[3-amino-6-(2-hydroxyphenyl)pyridazin-4-yl]oxy-5-phenyl-1-piperidyl]-7-oxo-heptanoyl]amino]-3,3-dimethyl-butanoyl]pyrrolidine-2-carboxamide]"
–,839,29,"Cc1ncsc1-c1ccc(CNC(=O)[C@@H]2C[C@@H](O)CN2C(=O)[C@@H](NC(=O)CCCCCCCCC(=O)N2CC(Oc3cc(-c4ccccc4O)nnc3N)CC(c3ccccc3)C2)C(C)(C)C)cc1 (mixture of isomers) [Example 67, Trans rac-(2S,4R)-4-hydroxy-N-[[4-(4-methylthiazol-5-yl)phenyl]methyl]-1-[rac-(2S)-2-[[10-[3-[3-amino-6-(2-hydroxyphenyl)pyridazin-4-yl]oxy-5-phenyl-1-piperidyl]-10-oxo-decanoyl]amino]-3,3-dimethyl-butanoyl]pyrrolidine-2-carboxamide]"
60,2110,–,"Cc1ncsc1-c1ccc([C@H](C)NC(=O)[C@@H]2C[C@@H](O)CN2C(=O)[C@@H](NC(=O)CCC(=O)N2CCN(CCOc3cccc(N4CCCC(Oc5cc(-c6ccccc6O)nnc5N)C4)c3)CC2)C(C)(C)C)cc1 (mixture of isomers) [Example 69, rac-(2S,4R)-4-hydroxy-1-[rac-(2S)-2-[[4-[4-[2-[3-[3-[3-amino-6-(2-hydroxyphenyl)pyridazin-4-yl]oxy-1-piperidyl]phenoxy]ethyl]piperazin-1-yl]-4-oxo-butanoyl]amino]-3,3-dimethyl-butanoyl]-N-[rac-(1S)-1-[4-(4-methylthiazol-5-yl)phenyl]ethyl]pyrrolidine-2-carboxamide]"
